# Read-outs that look alike come from different tables or passages of the source.
# What was measured:
# hPTP1B1-400 [1] = target: T1, hPTP1B1-400 (Homo sapiens, UniProt P18031); assay: Enzyme kinetics of hPTP1B1-400 inhibition; type: biochemical; set-up: the three purified hPTP1B constructs (hPTP1B1-285, hPTP1B1-321, and hPTP1B1-400); His-tag (N); made in house; host or cells: E. coli BL21 (DE3); details: for Type of inhibition: hPTP1B1-400, pNPP 0.1-0.5 mM, best fit by R^2; for Vmax: fit of inhibition model
# T1 sequence (P18031 1-400): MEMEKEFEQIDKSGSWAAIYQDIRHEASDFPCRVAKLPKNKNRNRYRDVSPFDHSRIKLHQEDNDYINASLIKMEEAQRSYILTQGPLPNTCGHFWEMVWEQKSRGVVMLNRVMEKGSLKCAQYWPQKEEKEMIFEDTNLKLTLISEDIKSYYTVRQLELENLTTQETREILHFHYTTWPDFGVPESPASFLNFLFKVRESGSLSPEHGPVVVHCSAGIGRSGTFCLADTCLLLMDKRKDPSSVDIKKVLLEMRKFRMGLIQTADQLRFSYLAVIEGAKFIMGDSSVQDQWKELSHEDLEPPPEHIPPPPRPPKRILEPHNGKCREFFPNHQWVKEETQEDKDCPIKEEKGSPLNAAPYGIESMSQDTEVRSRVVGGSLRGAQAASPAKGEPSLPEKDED
# Protocol: The negative control was prepared with the enzyme and substrate in the absence of an inhibitor. The experiments were performed in triplicate. […] (2) y= Vmax x/Km + x,
# Vmax is the maximum velocity, x is the […] concentration, and Km is the Michaelis constant.
# (3) y= Vmax (x)/Km (1+(I/Ki))+x (4) y= Vmax (x)/((1+I)/(α Ki)) /x+Km ((1+I)/ Ki)/(1+I)/(α Ki)), (5) y= Vmax (x)/ x+(Km/(1+I)/Ki)
# Vmax is the maximum velocity, x is the substrate concentration, I is the inhibitor concentration, Km is the Michaelis constant, Ki is the inhibition constant, and α=Vmax without inhibitor/Vmax with inhibitor.
# PTP1B1-400 = details: cited from earlier work
# PTP1B1-298 = details: cited from earlier work
# PTP1B1-321 = details: cited from earlier work
# PTP1B1-393 = details: cited from earlier work
# PTP1B1-301 = details: cited from earlier work
# hPTP1B1-321 = target: T2, hPTP1B1-321 (Homo sapiens, UniProt P18031); assay: hPTP1B inhibition assay (pNPP), construct hPTP1B1-321; details: read-out: Km of the substrate (pNPP); hPTP1B1-321, no inhibitor
# T2 sequence (P18031 1-321): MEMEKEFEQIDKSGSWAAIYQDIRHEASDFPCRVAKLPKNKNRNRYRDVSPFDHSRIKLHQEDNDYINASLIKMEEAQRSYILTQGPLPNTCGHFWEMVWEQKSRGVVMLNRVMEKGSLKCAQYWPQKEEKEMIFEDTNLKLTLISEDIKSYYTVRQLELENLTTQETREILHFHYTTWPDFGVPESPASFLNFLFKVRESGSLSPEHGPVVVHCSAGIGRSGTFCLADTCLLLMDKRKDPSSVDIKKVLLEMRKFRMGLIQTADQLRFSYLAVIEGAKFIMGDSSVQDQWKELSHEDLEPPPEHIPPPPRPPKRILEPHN
# hPTP1B1-400 [2] = target: T1, hPTP1B1-400; assay: hPTP1B inhibition assay (pNPP), construct hPTP1B1-400; details: read-out: Km of the substrate (pNPP); hPTP1B1-400, no inhibitor
# hPTP1B1-285 = target: T3, hPTP1B1-285 (Homo sapiens, UniProt P18031); assay: hPTP1B inhibition assay (pNPP), construct hPTP1B1-285; details: read-out: Km of the substrate (pNPP); hPTP1B1-285, no inhibitor
# T3 sequence (P18031 1-285): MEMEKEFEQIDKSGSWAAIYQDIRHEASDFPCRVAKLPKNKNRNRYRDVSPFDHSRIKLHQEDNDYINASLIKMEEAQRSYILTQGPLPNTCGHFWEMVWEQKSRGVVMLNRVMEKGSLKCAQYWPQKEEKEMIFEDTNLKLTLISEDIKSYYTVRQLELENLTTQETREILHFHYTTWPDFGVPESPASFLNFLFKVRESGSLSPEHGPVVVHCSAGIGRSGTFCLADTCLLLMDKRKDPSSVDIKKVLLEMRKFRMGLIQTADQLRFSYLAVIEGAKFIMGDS
# PTP1B1-299 = tested on: PTP1B1-299; set-up: method as in PMID 15475571; details: PTP1B1-299 ref [20]; cited from earlier work
# PTP1B1-405 = details: cited from earlier work
molecule,measurement,setting,value
COc1ccc(-n2ncc3c2C(C)(C)[C@@H]2CC[C@]4(C)[C@H](C(=O)C=C5[C@@H]6C[C@@](C)(C(=O)O)CC[C@]6(C)CC[C@]54C)[C@@]2(C)C3)cc1 [5 b],Type of inhibition,hPTP1B1-400 [1],Uncompetitive
same,Ki,"hPTP1B1-400 [1]; hPTP1B1-400, pNPP substrate",3.42 ± 0.2 µM
same,Vmax,"hPTP1B1-400 [1]; hPTP1B1-400, pNPP substrate",0.87 ± 0.03
"C[C@H]1[C@H](C)CC[C@]2(C(=O)O)CC[C@]3(C)C(=CC[C@@H]4[C@@]5(C)CC[C@H](O)C(C)(C)[C@@H]5CC[C@]43C)[C@H]12 [UA, ursolic acid]",IC50,PTP1B1-400; PTP1B1-400 ref [28],5.6 µM
same,Inhibition type,PTP1B1-400; PTP1B1-400 ref [28],Non-competitive
same,Ki,PTP1B1-400; PTP1B1-400 ref [28],8.9 µM
same,IC50,PTP1B1-298; PTP1B1-298 ref [44],7.1 µM
same,Inhibition type,PTP1B1-298; PTP1B1-298 ref [44],Non-competitive
same,Ki,PTP1B1-298; PTP1B1-298 ref [44],25.8 µM
same,Type of inhibition,hPTP1B1-400 [1],Mixed
same,Vmax,"hPTP1B1-400 [1]; hPTP1B1-400, pNPP substrate",0.63 ± 0.08
same,IC50,PTP1B1-321; PTP1B1-321 ref [45],6.6 µM
same,Inhibition type,PTP1B1-321; PTP1B1-321 ref [45],Competitive
same,IC50,PTP1B1-321; PTP1B1-321 ref [46],3.08 µM
same,Inhibition type,PTP1B1-321; PTP1B1-321 ref [46],Competitive
CC1=C(O)C(=O)C=C2C1=CC=C1[C@@]2(C)CC[C@@]2(C)[C@@H]3C[C@](C)(C(=O)O)CC[C@]3(C)CC[C@]12C [Celastrol],IC50,PTP1B1-393; PTP1B1-393 ref [36],2.1 µM
same,Inhibition type,PTP1B1-393; PTP1B1-393 ref [36],Non-competitive
same,IC50,PTP1B1-298; PTP1B1-298 ref [36],4.8 µM
same,Inhibition type,PTP1B1-298; PTP1B1-298 ref [36],Non-competitive
same,Kd,PTP1B1-298; PTP1B1-298 ref [36],6.1 µM
"O=C(/C=C/c1ccc(O)c(O)c1)O[C@@H]1C[C@](O)(C(=O)O)C[C@@H](O)[C@H]1O [CGA, chlorogenic acid]",Inhibition type,PTP1B1-301; PTP1B1-301 ref [47],Non-competitive
same,Ki,PTP1B1-301; PTP1B1-301 ref [47],8200 µM
same,IC50,PTP1B1-321; PTP1B1-321 ref [39],9.82 µM
same,Inhibition type,PTP1B1-321; PTP1B1-321 ref [39],Non-competitive
C[C@@H]1CC[C@]2(C(=O)O)CC[C@]3(C)C(=CC[C@@H]4[C@@]5(C)C[C@H](O)[C@H](O)C(C)(C)[C@@H]5CC[C@]43C)[C@@H]2[C@]1(C)O [2β-hydroxy pomolic acid],IC50,PTP1B1-321; PTP1B1-321 ref [49],5.88 µM
same,Inhibition type,PTP1B1-321; PTP1B1-321 ref [49],Mixed-competitive
same,Ki,PTP1B1-321; PTP1B1-321 ref [49],7.56 µM
"O=C(O)C(=O)Nc1ccccc1C(=O)O [2-(Oxaloamino) benzoic acid (OBA), 2-(oxaloamino) benzoic acid]",Inhibition type,PTP1B1-321; PTP1B1-321 ref [37],Competitive
same,Ki,PTP1B1-321; PTP1B1-321 ref [37],200 µM
"CC1CCC2(C(=O)O)CCC3(C)C(=CCC4C5(C)C(O)C(=O)C(O)C(C)(C)C5CCC43C)C2C1(C)O (stereo not drawn) [1β,3α,19α-trihydroxy-2-oxours-12-en-28-oic acid]",IC50,PTP1B1-321; PTP1B1-321 ref [49],13.2 µM
same,Inhibition type,PTP1B1-321; PTP1B1-321 ref [49],Non-competitive
same,Ki,PTP1B1-321; PTP1B1-321 ref [49],10.8 µM
"O=C(/C=C/c1ccc(O)c(O)c1)O[C@@H](C(=O)O)[C@@H](OC(=O)/C=C/c1ccc(O)c(O)c1)C(=O)O [Cichoric acid (CHA), Cichoric acid]",Inhibition type,PTP1B1-301; PTP1B1-301 ref [47],Competitive
same,Ki,PTP1B1-301; PTP1B1-301 ref [47],1400 µM
same,Inhibition type,PTP1B1-321; PTP1B1-321 ref [39],Non-competitive
"O=[N+]([O-])c1ccc(OP(=O)(O)O)cc1 [pNPP, p-nitrophenyl phosphate]",Km,hPTP1B1-321,15.7 ± 1.68 mM
same,Km,hPTP1B1-400 [2],2.03 ± 0.11 mM
same,Km,hPTP1B1-285,16.4 ± 1.55 mM
2-(hydroxy-phenoxy) acetic acid,Inhibition type,PTP1B1-321; PTP1B1-321 ref [38],Competitive
same,Ki,PTP1B1-321; PTP1B1-321 ref [38],9 µM
"Cc1ccc(C(=O)Nc2ccc(S(=O)(=O)O)c3cc(S(=O)(=O)O)cc(S(=O)(=O)O)c23)cc1NC(=O)c1cccc(NC(=O)Nc2cccc(C(=O)Nc3cc(C(=O)Nc4ccc(S(=O)(=O)O)c5cc(S(=O)(=O)O)cc(S(=O)(=O)O)c45)ccc3C)c2)c1 [SUR, suramin]",IC50,PTP1B1-400; PTP1B1-400 ref [28],4.1 µM
same,Inhibition type,PTP1B1-400; PTP1B1-400 ref [28],Competitive
same,Ki,PTP1B1-400; PTP1B1-400 ref [28],7.1 µM
same,Type of inhibition,hPTP1B1-400 [1],Competitive
same,Vmax,"hPTP1B1-400 [1]; hPTP1B1-400, pNPP substrate",0.64 ± 0.02
same,IC50,"PTP1B1-321; PTP1B1-321 ref [40], [50]",11 µM
same,Inhibition type,"PTP1B1-321; PTP1B1-321 ref [40], [50]",Competitive
same,Ki,"PTP1B1-321; PTP1B1-321 ref [40], [50]",4 µM
"Oc1cc(Cc2cc(O)c(O)c(Br)c2Cc2cc(O)c(O)c(Br)c2Br)c(Br)c(Br)c1O [BDB, 3-bromo-4,5-bis(2,3-dibromo-4,5-dihydroxybenzyl)-1,2-benzenediol]",IC50,PTP1B1-321; PTP1B1-321 ref [21],1.86 µM
same,Inhibition type,PTP1B1-321; PTP1B1-321 ref [21],Competitive
Cc1cc(-c2c3ccccc3c(Br)c3sc(C)c(C)c23)cc(C)c1O[C@H](Cc1ccccc1)C(=O)O [Ertiprotafib],Inhibition type,PTP1B1-301; PTP1B1-301 ref [18],Nonclassic kinetics: Aggregation
same,IC50,PTP1B1-299,> 20 µM
same,Inhibition type,PTP1B1-299,Nonclassic kinetics: Aggregation
same,Inhibition type,PTP1B1-393; PTP1B1-393 ref [18],Nonclassic kinetics: Aggregation
COC(=O)CC[C@@H](C)[C@H]1CC[C@H]2[C@@H]3[C@H](O)C[C@H]4C[C@H](NCCCCNCc5ccccn5)CC[C@]4(C)[C@H]3CC[C@]12C [DPM-1001],IC50,PTP1B1-405; PTP1B1-405 ref [48],0.1 µM
same,Inhibition type,PTP1B1-405; PTP1B1-405 ref [48],Non-competitive
same,Kd,PTP1B1-405; PTP1B1-405 ref [48],0.075 µM
"[Na+].[Na+].[Na+].[O]=[V]([O-])([O-])[O-] [SO, sodium orthovanadate]",Type of inhibition,hPTP1B1-400 [1],Uncompetitive
same,Vmax,"hPTP1B1-400 [1]; hPTP1B1-400, pNPP substrate",3.20 ± 0.80
same,IC50,PTP1B1-321; PTP1B1-321 ref [39–42],1.38 µM
same,Inhibition type,PTP1B1-321; PTP1B1-321 ref [39–42],Competitive
same,Ki,PTP1B1-321; PTP1B1-321 ref [39–42],0.38 µM
CC(C)[C@@H](CC[C@@H](C)[C@H]1CC[C@H]2[C@@H]3[C@H](O)C[C@H]4C[C@@H](NCCCNCCCCNCCCN)CC[C@]4(C)[C@H]3CC[C@]12C)OS(=O)(=O)O [Trodusquemine],IC50,PTP1B1-400; PTP1B1-400 ref [43],1 µM
same,Inhibition type,PTP1B1-400; PTP1B1-400 ref [43],Non-competitive
same,Inhibition type,PTP1B1-405; PTP1B1-405 ref [7],Non-competitive
same,Inhibition type,PTP1B1-321; PTP1B1-321 ref [7],Non-competitive
